# Assay results from ChEMBL document CHEMBL5465560, “Selectivity Literature for EUbOPEN Chemogenomic Library” (2024).
# What was measured:
# [1] = target: T1, Dual specificity mitogen-activated protein kinase kinase 7 (Homo sapiens) (UniProt O14733); test: Selectivity interaction (KinomeScan (DiscoverX)) EUB0000229b MAP2K7; details: at 10 µM
# T1 sequence (whole entry): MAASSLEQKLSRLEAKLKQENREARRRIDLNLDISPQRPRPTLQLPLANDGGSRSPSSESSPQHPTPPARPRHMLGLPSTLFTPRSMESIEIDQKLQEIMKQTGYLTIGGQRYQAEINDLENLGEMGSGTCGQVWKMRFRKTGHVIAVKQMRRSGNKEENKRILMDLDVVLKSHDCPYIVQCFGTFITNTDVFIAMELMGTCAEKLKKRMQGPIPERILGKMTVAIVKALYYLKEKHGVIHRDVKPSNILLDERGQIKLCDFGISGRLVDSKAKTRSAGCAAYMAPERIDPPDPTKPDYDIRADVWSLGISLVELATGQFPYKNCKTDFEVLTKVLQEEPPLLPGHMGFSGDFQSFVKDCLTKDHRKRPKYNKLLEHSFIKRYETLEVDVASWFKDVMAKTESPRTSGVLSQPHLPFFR
# [2] = target: RAF proto-oncogene serine/threonine-protein kinase (Homo sapiens) (UniProt P04049); test: Selectivity interaction (Millipore kinase profiler) EUB0000124b RAF1; details: at 10 µM
# Chain of RAF proto-oncogene serine/threonine-protein kinase (Homo sapiens) (P04049 whole entry): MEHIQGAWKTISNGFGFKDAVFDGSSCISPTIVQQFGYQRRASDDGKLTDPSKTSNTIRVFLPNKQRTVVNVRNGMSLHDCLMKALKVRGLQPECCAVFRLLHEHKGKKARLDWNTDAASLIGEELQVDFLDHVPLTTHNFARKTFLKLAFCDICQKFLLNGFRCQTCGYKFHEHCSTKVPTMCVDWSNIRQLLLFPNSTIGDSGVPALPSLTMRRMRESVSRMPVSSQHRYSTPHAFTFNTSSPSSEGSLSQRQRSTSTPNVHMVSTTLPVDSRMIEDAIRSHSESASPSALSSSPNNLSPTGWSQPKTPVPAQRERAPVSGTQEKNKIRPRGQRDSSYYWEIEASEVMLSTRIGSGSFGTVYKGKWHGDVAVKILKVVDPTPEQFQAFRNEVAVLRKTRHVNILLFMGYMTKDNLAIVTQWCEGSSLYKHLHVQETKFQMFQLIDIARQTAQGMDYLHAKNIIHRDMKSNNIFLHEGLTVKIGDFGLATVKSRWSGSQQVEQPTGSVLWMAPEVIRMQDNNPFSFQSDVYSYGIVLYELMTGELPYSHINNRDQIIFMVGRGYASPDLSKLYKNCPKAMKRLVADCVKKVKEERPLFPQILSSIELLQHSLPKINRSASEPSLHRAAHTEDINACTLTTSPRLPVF
# [3] = target: Tyrosine-protein kinase Blk (Homo sapiens) (UniProt P51451); test: Selectivity interaction (Upstate Kinase Profiler service (Millipore)) EUB0000056c BLK; details: at 1 µM
# Chain of Tyrosine-protein kinase Blk (Homo sapiens) (P51451 2-505 limits assumed): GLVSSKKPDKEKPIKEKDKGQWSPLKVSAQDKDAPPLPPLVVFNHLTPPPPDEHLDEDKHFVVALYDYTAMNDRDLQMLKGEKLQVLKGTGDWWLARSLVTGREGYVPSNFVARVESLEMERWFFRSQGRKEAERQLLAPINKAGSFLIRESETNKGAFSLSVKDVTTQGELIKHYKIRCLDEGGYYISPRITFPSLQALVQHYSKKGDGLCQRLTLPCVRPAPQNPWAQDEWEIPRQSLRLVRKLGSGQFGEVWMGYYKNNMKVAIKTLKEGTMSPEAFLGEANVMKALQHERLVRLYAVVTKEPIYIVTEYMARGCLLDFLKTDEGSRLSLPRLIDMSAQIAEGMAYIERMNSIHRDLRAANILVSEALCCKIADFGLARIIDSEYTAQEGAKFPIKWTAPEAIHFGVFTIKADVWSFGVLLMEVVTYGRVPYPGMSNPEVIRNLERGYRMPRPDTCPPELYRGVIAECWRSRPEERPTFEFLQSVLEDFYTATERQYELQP
# [4] = target: T2, Inhibitor of nuclear factor kappa-B kinase subunit beta (Homo sapiens) (UniProt O14920); test: Selectivity interaction (SelectScreen profiling (Invitrogen)) EUB0000607a IKBKB; details: at 2 µM
# T2 sequence (whole entry): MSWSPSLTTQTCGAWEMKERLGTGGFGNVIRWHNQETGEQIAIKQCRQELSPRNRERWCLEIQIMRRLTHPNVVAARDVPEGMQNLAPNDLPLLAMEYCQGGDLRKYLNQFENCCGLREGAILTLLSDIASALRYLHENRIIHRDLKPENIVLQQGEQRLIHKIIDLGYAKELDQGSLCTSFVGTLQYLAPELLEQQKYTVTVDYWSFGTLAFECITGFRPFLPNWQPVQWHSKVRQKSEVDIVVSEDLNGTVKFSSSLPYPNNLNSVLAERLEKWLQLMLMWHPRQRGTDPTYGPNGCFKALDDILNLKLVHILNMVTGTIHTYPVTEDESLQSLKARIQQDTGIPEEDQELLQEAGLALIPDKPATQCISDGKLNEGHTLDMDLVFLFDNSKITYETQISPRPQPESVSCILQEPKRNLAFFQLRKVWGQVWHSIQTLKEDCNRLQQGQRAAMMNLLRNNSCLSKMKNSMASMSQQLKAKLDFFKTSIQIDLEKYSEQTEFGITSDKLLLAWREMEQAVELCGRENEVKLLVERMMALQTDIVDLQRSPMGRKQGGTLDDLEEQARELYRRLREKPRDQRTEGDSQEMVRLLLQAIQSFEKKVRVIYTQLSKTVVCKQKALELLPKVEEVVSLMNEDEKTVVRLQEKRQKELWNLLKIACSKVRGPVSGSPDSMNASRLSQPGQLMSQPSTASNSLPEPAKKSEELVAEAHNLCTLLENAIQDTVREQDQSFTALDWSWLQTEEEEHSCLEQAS
# [5] = target: Phosphatidylinositol 3-kinase catalytic subunit type 3 (Homo sapiens, UniProt Q8NEB9); test: Selectivity interaction (ActivX KiNativ screen (kinase selectivity in THP-1 cell lysates)) EUB0000639a PIK3C3; assay type: subcellular; details: lysate, at 0.01 µM
# Chain of Phosphatidylinositol 3-kinase catalytic subunit type 3 (Q8NEB9 whole entry): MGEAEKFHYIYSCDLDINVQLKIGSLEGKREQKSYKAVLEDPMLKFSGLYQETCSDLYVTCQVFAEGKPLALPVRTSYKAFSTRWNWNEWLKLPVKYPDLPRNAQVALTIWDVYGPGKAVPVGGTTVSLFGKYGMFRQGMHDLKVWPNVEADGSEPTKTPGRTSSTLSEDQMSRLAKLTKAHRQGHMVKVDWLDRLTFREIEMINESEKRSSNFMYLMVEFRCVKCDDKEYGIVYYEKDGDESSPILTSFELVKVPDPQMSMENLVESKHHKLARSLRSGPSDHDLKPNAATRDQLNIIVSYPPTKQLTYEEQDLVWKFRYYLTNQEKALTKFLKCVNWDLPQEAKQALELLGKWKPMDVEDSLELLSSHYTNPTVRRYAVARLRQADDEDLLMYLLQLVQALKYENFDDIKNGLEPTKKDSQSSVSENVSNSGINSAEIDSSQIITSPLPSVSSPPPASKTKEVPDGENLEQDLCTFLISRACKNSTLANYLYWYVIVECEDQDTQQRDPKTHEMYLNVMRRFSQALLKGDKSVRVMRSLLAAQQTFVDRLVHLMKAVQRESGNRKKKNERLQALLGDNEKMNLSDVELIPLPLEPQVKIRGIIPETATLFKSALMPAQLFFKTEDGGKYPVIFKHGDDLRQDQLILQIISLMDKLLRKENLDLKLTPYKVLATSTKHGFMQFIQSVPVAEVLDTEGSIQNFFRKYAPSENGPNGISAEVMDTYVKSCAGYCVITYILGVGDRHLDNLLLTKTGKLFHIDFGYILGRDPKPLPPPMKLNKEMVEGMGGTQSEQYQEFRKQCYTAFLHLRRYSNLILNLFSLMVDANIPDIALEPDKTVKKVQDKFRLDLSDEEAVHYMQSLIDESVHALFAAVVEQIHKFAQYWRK
# [6] = Selectivity interaction (ActivX KiNativ screen (kinase selectivity in THP-1 cell lysates)) EUB0000639a STLK6; details: Selectivity number of off-targets 0; Selectivity number of targets 283; Source Knowledge https://pubmed.ncbi.nlm.nih.gov/28498658/; at 0.2 µM
# [7] = target: T3, Interleukin-1 receptor-associated kinase 3 (Homo sapiens) (UniProt Q9Y616); test: Selectivity interaction (KinomeScan (DiscoverX)) EUB0000655a IRAK3; details: at 10 µM
# T3 sequence (whole entry): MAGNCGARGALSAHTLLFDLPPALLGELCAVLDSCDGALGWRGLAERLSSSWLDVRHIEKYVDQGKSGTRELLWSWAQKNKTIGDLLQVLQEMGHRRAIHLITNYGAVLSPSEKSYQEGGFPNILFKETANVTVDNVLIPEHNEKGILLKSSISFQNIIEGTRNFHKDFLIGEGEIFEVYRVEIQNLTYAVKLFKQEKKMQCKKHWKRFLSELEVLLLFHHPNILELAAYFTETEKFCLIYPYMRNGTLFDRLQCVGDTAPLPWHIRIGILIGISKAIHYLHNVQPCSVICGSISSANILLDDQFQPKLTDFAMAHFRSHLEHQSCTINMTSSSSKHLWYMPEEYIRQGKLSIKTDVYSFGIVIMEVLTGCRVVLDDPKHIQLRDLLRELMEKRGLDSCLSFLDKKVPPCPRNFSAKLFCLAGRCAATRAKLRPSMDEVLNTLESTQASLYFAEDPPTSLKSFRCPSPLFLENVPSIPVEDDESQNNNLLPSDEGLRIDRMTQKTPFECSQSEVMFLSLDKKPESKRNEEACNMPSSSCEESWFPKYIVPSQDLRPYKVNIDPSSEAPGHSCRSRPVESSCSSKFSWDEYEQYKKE
compound,measurement,setting,value
COc1cc(N(C)c2ccnc3ccc(C(F)(F)F)cc23)cc(OC)c1OC,% binding,[1],83%
CC(=O)Nc1cccc(-n2c(=O)n(C3CC3)c(=O)c3c(Nc4ccc(I)cc4F)n(C)c(=O)c(C)c32)c1,% of control,[2],108%
Cc1ccc(-c2ccc3c(ccc4sc5c(c43)NC[C@@H](C)NC5=O)n2)cn1,% of inhibition,[3],14%
CNC(=O)Nc1ccc(-c2nc(N3CC4CCC(C3)O4)c3cnn(C4CCC5(CC4)OCCO5)c3n2)cc1,% of inhibition,[4],-5%
CC[C@@H]1[C@H](F)C(=O)N[C@@H]1COc1nccc2cc(C(N)=O)c(OC)cc12 [ZIMLOVISERTIB],% of inhibition,[5],-21%
same,% of inhibition,[6],7.4%
CN(C)CCOc1ccc(-c2nc(-c3ccncc3)c(-c3ccc4c(c3)CC/C4=N\O)[nH]2)cc1,% of control,[7],71%
